In article PMC3152597 (Bioorganic & medicinal chemistry, 2011):
“Also recorded” adds a separate entry of the source.

Assays:
DU145-TxR = test: Antiproliferative activity, paclitaxel-resistant DU145-TxR; type: cell-based, human
MDR cancer cell lines = test: Antiproliferative activity, MDR cancer cell lines; type: cell-based; conditions: Homo sapiens, read-out: potency on resistant (MDR) cancer cell lines (range)
[1] = test system: two melanoma (A375, WM164) and four prostate cancer cell lines (LNCaP, PC-3, Du 145, PPC-1); test: Antiproliferative activity, all six cancer cell lines together; type: cell-based, human; conditions: for IC50: Homo sapiens, read-out: IC50 values (range over the cancer cell lines); for fold decrease in potency compared with parent compound: average IC50 versus parent ABI-I compound (1a, 1c)
PC-3-TxR = test: Antiproliferative activity, paclitaxel-resistant PC-3-TxR; type: cell-based, human; conditions: IC50 on PC-3-TxR divided by IC50 on PC-3
[2] = test system: nonresistant cancer cell lines; test: Antiproliferative activity, nonresistant cancer cell lines; type: cell-based; conditions: Homo sapiens, read-out: potency on nonresistant cancer cell lines (range)
Bovine brain tubulin = test: In vitro microtubule polymerization assay; type: biochemical; conditions: after 15 min, absorbance at 340 nm, 37 °C
[3] = In vitro metabolic stability, dog liver microsomes; type: in vitro ADME
[4] = In vitro metabolic stability, rat liver microsomes; conditions: 50 µM; LC-MS/MS metabolite identification
[5] = In vitro metabolic stability, human liver microsomes; conditions: 50 µM; LC-MS/MS metabolite identification
[6] = In vitro metabolic stability, mouse liver microsomes; conditions: 50 µM; LC-MS/MS metabolite identification

## CC(=O)O[C@H]1C(=O)[C@@]2(C)[C@H]([C@H](OC(=O)c3ccccc3)[C@]3(O)C[C@H](OC(=O)[C@H](O)[C@@H](NC(=O)c4ccccc4)c4ccccc4)C(C)=C1C3(C)C)[C@]1(OC(C)=O)CO[C@@H]1C[C@@H]2O [Paclitaxel, reference compound]
DU145-TxR; Homo sapiens, read-out: IC50±SEM DU145-TxR
  IC50: > 3000 nM
MDR cancer cell lines
  IC50: > 400 nM

## COc1cc(C(=O)c2cc3cc(F)ccc3[nH]2)cc(OC)c1OC [12f, (5-Fluoro-1H-indol-2-yl)(3,4,5-trimethoxyphenyl)methanone]
[1]
  IC50: 1000 to 10000 nM

## COc1cc(C(=O)c2cc3ccc(F)cc3n2C)cc(OC)c1OC [13b, (6-Fluoro-1-methyl-1H-indol-2-yl)(3,4,5-trimethoxyphenyl)methanone]
[1]
  IC50: 1000 to 10000 nM

## COc1cc(C(=O)c2c[nH]c(-c3ccc(Cl)cc3)n2)cc(OC)c1O [2c, (2-(4-Chlorophenyl)-1H-imidazol-4-yl)(4-hydroxy-3,5-dimethoxyphenyl)methanone]
[1]
  fold decrease in potency compared with parent compound: 10-to 20 fold

## COc1cc(C(=O)c2c[nH]c(-c3ccc(Br)cc3)n2)cc(OC)c1OC [8a, (2-(4-Bromophenyl)-1H-imidazol-4-yl)(3,4,5-trimethoxyphenyl)methanone]
PC-3-TxR
  Resistance index (R) PC-3-TxR: ≈ 1
DU145-TxR; IC50 on DU145-TxR divided by IC50 on Du145
  Resistance index (R) DU145-TxR: ≈ 1
[2]
  IC50: 50 to 80 nM
MDR cancer cell lines
  IC50: 50 to 80 nM
Bovine brain tubulin; 10 µM
  inhibition of tubulin polymerization at 10 µM: Complete inhibition
Bovine brain tubulin
  inhibition of tubulin polymerization at 20 µM: Complete inhibition

## COc1cc(C(=O)c2cn(Cc3ccccc3)c(-c3ccc(C)cc3)n2)cc(OC)c1OC [3aa, (1-Benzyl-2-(p-tolyl)-1H-imidazol-4-yl)(3,4,5-trimethoxyphenyl)methanone]
[1]
  fold decrease in potency compared with parent compound: 90 fold

## COc1cc(C(=O)c2cn(C)c(-c3ccc(C)cc3)n2)cc(OC)c1OC [3ab]
[2]
  IC50: 50 to 80 nM
MDR cancer cell lines
  IC50: 50 to 80 nM
[3]; 0.5 µM compound, 1 mg/mL microsomal protein, 37 °C
  half-life in dog liver microsomes (in words): slightly longer half-life than that of compound 1a
[3]; 50 µM, LC-MS/MS metabolite identification
  metabolic pathway in dog liver microsomes: Hydroxylation on the para-methyl of the A ring was a major metabolic pathway; also recorded: O-demethylation was a minor metabolic pathway
Bovine brain tubulin
  inhibition of tubulin polymerization at 20 µM: Complete inhibition
[4]
  metabolic pathway in rat liver microsomes: N-demethylation represented the major pathway; also recorded: Hydroxylation on the para-methyl of the A ring was a major metabolic pathway; also recorded: O-demethylation was a minor metabolic pathway
[5]
  metabolic pathway in human liver microsomes: Hydroxylation on the para-methyl of the A ring was a major metabolic pathway; also recorded: Ketone reduction was only detected in human liver microsomes; also recorded: O-demethylation was a minor metabolic pathway
[6]
  metabolic pathway in mouse liver microsomes: Hydroxylation on the para-methyl of the A ring was a major metabolic pathway; also recorded: O-demethylation was a minor metabolic pathway; also recorded: N-demethylation represented the major pathway

## COc1cc(C(=O)c2cc3ccc(Cl)cc3n2C)cc(OC)c1OC [13aa, (6-Chloro-1-methyl-1H-indol-2-yl)(3,4,5-trimethoxyphenyl)methanone]
[1]
  IC50: 1000 to 10000 nM

## COc1cc(C(=O)c2c[nH]c(-c3ccc(C)cc3)n2)cc(OC)c1O [2a, (4-Hydroxy-3,5-dimethoxyphenyl)(2-(p-tolyl)-1H-imidazol-4-yl)methanone]
[1]
  fold decrease in potency compared with parent compound: 10-to 20 fold
